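How tested: cells in 96-well plates exposed to compound for 48 hours at five concentrations. GI50: concentration for 50% inhibition of growth. TGI: total growth inhibition.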
Experiments:
Test in all cases: growth of human tumour cells (NCI), 48 h
[1] = tested on: CCRF-CEM leukemia
[2] = tested on: DU-145 prostate
[3] = tested on: HOP-62 NSCLC
[4] = tested on: KM12 colon
[5] = tested on: MCF7 breast
[6] = tested on: NCI-H522 lung
[7] = tested on: OVCAR-3 ovarian
[8] = tested on: RPMI-8226 leukemia
[9] = tested on: SNB-19 CNS
[10] = tested on: UACC-257 melanoma

Row | Structure (SMILES) | TGI [1] [µM] | TGI [2] [µM] | TGI [3] [µM] | TGI [4] [µM] | TGI [5] [µM] | TGI [6] [µM] | TGI [7] [µM] | TGI [8] [µM] | TGI [9] [µM] | TGI [10] [µM] | GI50 [1] [µM] | GI50 [2] [µM] | GI50 [3] [µM] | GI50 [4] [µM] | GI50 [5] [µM] | GI50 [6] [µM] | GI50 [7] [µM] | GI50 [8] [µM] | GI50 [9] [µM] | GI50 [10] [µM]
1 | Clc1ccc2oc(CCc3ccccc3)nc2c1 | > 100 | > 100 | > 100 | > 100 | > 100 | > 100 | 85.1 | > 100 | > 100 | > 100 |  |  |  |  |  |  |  |  |  | 
2 | CC(C)(C)OC(=O)NCCCCC(N)NC(=O)c1ccccc1 (stereo not given) | > 100 | > 100 | > 100 | > 100 | > 100 | > 100 | > 100 | > 100 | > 100 | > 100 |  |  |  |  |  |  |  |  |  | 
3 | CC(C)/C(Cl)=N/OC(=O)Nc1ccc(Cl)c(Cl)c1 | 3.91 | 32.5 | 33.1 | 32.6 | 26.9 | 3.25 | 6.4 | 6.92 | 50.4 | 27.9 |  |  |  |  |  |  |  |  |  | 
4 | CN(C)CCNC(=O)c1cccc2c(NC(CCC(N)=O)C(=O)O)c3ccccc3nc12 (stereo not given) | > 100 | > 100 | 47.8 | 59.1 | 51.3 | 22.3 | > 100 | > 100 | 15.5 | > 100 |  |  |  |  |  |  |  |  |  | 
5 | COc1ccc2c3c1O[C@H](c1ccc(O)cc1)[C@H]3[N+](C)(C)CC2 | > 100 | > 100 | > 100 | > 100 | > 100 | > 100 | > 100 | > 100 | > 100 | > 100 |  |  |  |  |  |  |  |  |  | 
6 | C[N+](C)(C)c1ncnc2c1ncn2C1CCCO1 (stereo not given) | > 100 | > 100 | > 100 | > 100 | > 100 | > 100 | > 100 | > 100 | > 100 | > 100 |  |  |  |  |  |  |  |  |  | 
7 | COc1ccc(C2=NOC(N)(c3ccc(OC)cc3)C2)cc1 (stereo not given) | > 100 | > 100 | > 100 | > 100 | > 100 | > 100 | > 100 | > 100 | > 100 | > 100 |  |  |  |  |  |  |  |  |  | 
8 | Nc1ncnc2c1ncn2[C@@H]1O[C@H](COC(c2ccccc2)(c2ccccc2)c2ccccc2)[C@@H](OC(=S)Oc2ccccc2)[C@@H]1F | 8.55 | 30.2 | 46 | 29.1 | 14.9 | 5.32 | 18.4 | > 100 | 27.7 | 28.6 |  |  |  |  |  |  |  |  |  | 
9 | CN(CCCNC(=O)c1cc(-c2ccccc2)nc2ccccc12)CCCNC(=O)c1cc(-c2ccccc2)nc2ccccc12 | 17.6 | 9.49 | 4.13 | 4.75 | 3.2 | 3.51 | 9.14 | 10.6 | 16.7 | 3.34 |  |  |  |  |  |  |  |  |  | 
10 | CCOC(=O)C1CCCCN1C(=O)Cc1c[nH]c2ccccc12 (stereo not given) | > 100 | > 100 | > 100 | > 100 | > 100 | > 100 | > 100 | 64.7 | > 100 | > 100 |  |  |  |  |  |  |  |  |  | 
11 | N#Cc1nc(C#N)n(S(=O)(=O)c2ccccc2)c1NS(=O)(=O)c1ccccc1 | > 100 | > 100 | > 100 | > 100 | > 100 | > 100 | > 100 | > 100 | > 100 | > 100 |  |  |  |  |  |  |  |  |  | 
12 | CCN(CC)C1Oc2cc3c(cc2C(c2cccc(OC)c2OC)C1C)OCO3 (stereo not given) | 8.48 | 23.9 | 30.2 | 29.5 | 60.8 | 26.3 | 9.97 | 16.4 | 71.4 | 24.9 |  |  |  |  |  |  |  |  |  | 
13 | Cc1cc2c(cc1C)[n+](=O)c(C(=O)c1ccccc1)c(C(F)(F)F)n2[O-] | 8.52 | 3.15 | 2.34 | 5.1 | 14.1 | 12.9 | 3.8 | 3.6 | 15.5 | 14.6 |  |  |  |  |  |  |  |  |  | 
14 | CCCc1[nH]c2ccccc2c1-c1c(CCC)[nH]c2ccccc12 | > 100 | 35 | 32.2 | > 61.2 | 29.9 | 34.2 | 21.4 | > 100 | 29.3 | 43.9 |  |  |  |  |  |  |  |  |  | 
15 | C=CCC1(C)CCCN(Cc2ccccc2)C1=O (stereo not given) | > 10 | > 10 | > 10 | > 10 | > 10 | > 10 | > 10 | > 10 | > 10 | > 10 |  |  |  |  |  |  |  |  |  | 
16 | COc1ccc(Nc2ccc([N+](=O)[O-])cc2[N+](=O)[O-])cc1CN(CCCl)CCCl | 20.7 | 10.5 | 20.9 | 51 | 13.3 | 4.29 | 7.85 | 9.75 | 25 | 34.2 | 0.64 | 3.1 | 2.97 | 3.66 | 1.49 | 1.76 | 2.36 | 1.86 | 3.22 | 5.31
17 | O=[N+]([O-])c1ccc(C(O)(C#CCN2CCCC2)c2ccccc2)cc1 (stereo not given) | 57.5 | > 100 | > 100 | > 100 | > 100 | 54.9 | > 100 | 61.9 | > 100 | 58.7 |  |  |  |  |  |  |  |  |  | 
18 | O=c1[nH]c2nc3ccccc3c(=O)n2/c1=C/c1ccco1 | > 100 | > 100 | > 100 | > 100 | > 100 | > 100 | > 100 | > 100 | > 100 | > 100 |  |  |  |  |  |  |  |  |  | 
19 | CCOC(=O)Cn1nnc2ccc(Nc3nc4ccccc4nc3-c3ccccc3)cc21 | > 100 | 31.8 | > 100 | > 100 | > 100 | > 100 | > 100 | > 100 | > 100 | > 100 |  |  |  |  |  |  |  |  |  | 
20 | c1ccc(CC2COC(c3cccs3)=N2)cc1 (stereo not given) | > 100 | > 100 | > 100 | > 100 | > 31.6 | > 100 | > 100 | > 100 | > 100 | > 100 |  |  |  |  |  |  |  |  |  | 
21 | O=c1[nH]nc(-c2ccccc2)n1O | > 100 | > 100 | > 100 | > 100 | > 100 | > 100 | > 100 | > 100 | > 100 | > 100 |  |  |  |  |  |  |  |  |  | 
22 | CCc1ccc2c(c1)N(CC(C)CN(C)C)c1ccccc1S2 (stereo not given) | 4.99 | 21.4 | 17.8 | 16.6 | 11.5 | 7.96 | 12.4 | 6.28 | 23 | 7.19 |  |  |  |  |  |  |  |  |  | 
23 | CC(=O)OCC1OC(OCCCOP(=S)(OCCC#N)OCC2OC(n3ccc(N)nc3=O)C(OC(=O)c3ccccc3)C2OC(=O)c2ccccc2)C(OC(C)=O)C(OC(C)=O)C1OC(C)=O (stereo not given) | > 100 | > 100 | > 100 | > 100 | > 100 | > 100 | > 100 | > 100 | > 100 | > 100 |  |  |  |  |  |  |  |  |  | 
